Where a SMILES comes first, the peptide text is derived from it. Bridges are numbered along the chain shown (N, C = ends). [ ]: non-standard residue; d: D form. Pen = CC(C)(S)[C@H](N)C(=O)O
Tests used:
[1] = system: platelet rich plasma (PRP); assay: Rabbit ex-vivo platelet aggregation (XPA), ADP-induced; assay type: in vivo; details: Example 1
Protocol: Catheters are flushed and locked after every sample.
[…] of PRP is placed in a disposable glass cuvette with a stir bar. The cuvette is placed in the temperature regulated light path of a light transmittance aggregometer (Chrono-log) and equilibrated to a 37° C. Baseline transmittance is recorded for 30 seconds, after which […] of ADP (1 mM) is added and the change in transmittance recorded. The maximum change from baseline (dT) is noted for each sample. The extent of inhibition of XPA that is produced by an inhibitor is calculated for each animal as follows: Mean dTs are calculated for the pre and post infusion values, and then, percent inhibition is calculated as (1-dt (post)/ddt (pre))×100.

[2] = system: New Zealand White rabbits; assay: Rabbit cutaneous bleeding time (CBT); details: for Rabbit BT Ratio: Example 1, at the % P.A. inhibition given
Protocol: Unanesthetized male New Zealand White rabbits (2.5-3.5 kg) are placed in a standard rabbit restrainer. Ears are shaved and a 20 G Teflon catheter with flowswitch (Viggo) is placed in the medial artery, flushed with saline and locked with 1 ml of heparinized saline (10 m/ml). A 22 G catheter (Abbott) fitted with an injection cap (Medex) is placed in the marginal vein of the same ear. Saline or a GP IIb IIIa receptor antagonist, at a concentration of 1 to 3 mg/ml, is infused via the venous catheter. At time 0, 41% of the dose is given as a bolus over 2 minutes. The remainder is continuously infused over the following 60 minutes. Blood samples (3.2 ml) are collected into syringes without needles via the arterial catheter at -10, -5, 10, 45, and 60 minutes. The first 0.5 ml is discarded and the following 2.7 ml is collected directly into a syringe containing 0.3 ml of 3.8% sodium citrate. The sample is divided into 1.5 ml aliquots and centrifuged at room temperature for 5 seconds at 12,000 G. The resulting platelet rich plasma (PRP) is used to measure ex-vivo platelet aggregation (XPA). At -10 and 60 minutes an additional 1 cml sample is drawn for an automated blood count (Baker instruments). Catheters are flushed and locked after every sample.
CBT is measured at -10, -5, 10, and 45 minutes on the opposite ear, using an automated incision-making instrument (Surgicutt®, ITD). An incision (5mm×1 mm deep) is made on the dorsal surface of the ear at sites not supplied by major blood vessels. Blood is blotted away with absorbent paper placed near the incision site, every 2 to 15 seconds, to a maximum of 15 minutes. Cessation of bleeding is defined as no blood forming at the incision site for 15 seconds. The range of duplicate CBT in 40 normal rabbits was 0.88 to 3.38 minutes.

[3] = target: human platelet rich plasma (PRP) (Homo sapiens, UniProt P05106+P08514); assay: In Vitro Human Platelet Aggregation Assay; assay type: cell-based; details: human PRP; read-out: Human Platelet Aggregation IC50
Protocol: Platelet aggregation assays are performed in human platelet rich plasma (PRP). Fifty milliliters of whole human blood (9 parts) is drawn on 3.6% sodium citrate (1 part) from a donor who has not taken aspirin or related medications for at least two weeks. The blood is centrifuged at 160×g for 10 minutes at 22° C. and allowed to stand for 5 minutes after which the PRP is decanted. Platelet poor plasma (PPP) is isolated from the remaining blood after centrifugation at 2000×g for 25 minutes. The platelet count of the PRP is diluted to about 300,000 platelets per microliter with PPP.
A 225 μl aliquot of PRP plus 25 μl of either a dilution of the test inhibitor sample or a control (PBS) is incubated for 5 minutes in a Chrono-log Whole Blood Aggregometer at 25° C. An aggregating agent (collagen, 1 μg/ml; U46619, 100 ng/ml; or ADP, 17 μM) is added and the transmission is recorded.

[4] = target: T1, Vitronectin Receptor (αvβ3) (Homo sapiens, UniProt P05106+P06756); assay: Human Vitronectin-Vitronectin Receptor (αvβ3) ELISA Assay; assay type: binding; details: purified human αvβ3, vitronectin-coated plates; read-out: ELISA IC50 Vitronectin VnR
T1 construct: Human vitronection receptor (VnR) is purified from human placenta; from tissue; host or cells: human placenta
Text: Human vitronectin (Vn) is isolated from human plasma and purified by affinity chromatography by the method of Yatohgo et. al., (Cell Structure and Function 13:281-292 [1988]).
Human vitronection receptor (VnR) is purified from human placenta by the method of Pytela et al., (Methods Enzymol., 144:475 [1987]). Alternatively the αvβ3 receptor can be purified from some cell lines (e.g., human embryonic kidney 293 cells) transfected with DNA sequences for both the αv and β3 subunits. The subunits are purified by employing octylglucoside extraction followed by Con-A, Heparin-Sepharose, and S-300 Chromatography.
Anti-GP IIb IIIa monoclonal antibodies specific for human GP IIIa are prepared by the method of Newman et al. (Blood, 65:227-232 [1985]), or a similar procedure. This mouse Mab is specific for the β3 subunit of the vitronectin receptor.
Rabbit Fab 2 anti-mouse Fc fragment horse radish peroxidase conjugate (anti-MuFc HRP) is obtained from PelFreeze (cat. no. 715305-1).
Maxisorp microtiter plates are coated with 2 μg/ml human vitronectin dissolved in PBS ([…]) and stored overnight at 4° C. The plates are washed two times with PBS-0.05% Tween-20 (wash buffer) and blocked by incubating with about 150 μl/well of assay buffer (1%, BSA [RIA grade or better] in 50 mM Tris-HCl, 100 mM NaCl, 1 mM MgCl2, CaCl2, MnCl2 pH 7.4) for 60 minutes. Dilutions of standards are prepared and putative inhibitors (Table 3) are dissolved in assay buffer. The blocked plates are emptied and 25 μl/well of inhibitor or standard solution is added to each well. Twenty-five μl of a 30 μg/ml solution of purified αvβ3 in assay buffer is pipetted into the coated plate. The final concentration of receptor in the assay well is about 15 μg/ml. The plate is incubated on a shaker for 60 minutes. Meanwhile, for each microtite plate, 6 ml buffer solution containing 1.5 μg/ml of mouse monoclonal antibody specific for β3 is prepared. To this solution is added μl of the secondary antibody, which is anti-mouse-Fc-HRP antibody conjugate. For example, for one plate, prepare 6 ml of a 1.5 μg/ml mouse Mab solution to which is added 1 μl of anti-mouse-Fc-HRP antibody stock, (this represents a 1:6000 dilution of the antibody - HRP conjugate). This mixture is allowed to incubate during the receptor-inhibitor incubation. The assay plates are washed 4 times with PBS-Tween and 50 μl/well of the antibody mixture is then pipetted into the plate for a 60 minute incubation. The plate is washed 4 times and the color reaction is developed with 50 μl/well of 0.67 mg/ml o-phenyldiamine in PBS containing 0.012% H2 O2. Alternatively, 16 mM citric acid, 50 mM Na2 PO4 at pH 5.0 can be used as a substrate buffer. The reaction is stopped with 50 μl/well 1M H2 SO4. The plates are read at 492-405 nm and the data analyzed by four-parameter fit.

GP IIb IIIa [5] = target: T2, GP IIb IIIa (Homo sapiens, UniProt P05106+P08514); assay: GP IIb IIIa -von Willebrand factor (vWF) ELISA Assay; assay type: binding; parameters: GP IIb IIIa, prepared by the method of Fitzgerald et al; from tissue; details: GP IIb IIIa-coated plates, vWF; read-out: ELISA IC50 GPIIb IIIa vWF
Protocol: Microtiter plates are coated with 1.0 μg/ml GP IIb IIIa, prepared by the method of Fitzgerald et al., (Anal. Biochem. 151:169-177 [1985]) and allowed to incubate overnight in coat buffer. The plates are then washed three times in wash buffer (0.05% Tween 20 in PBS) and 150 μl of assay buffer is added and allowed to incubate for 1-2 hours at room temperature on plate shaker. The plates are washed three times and 50 μl of 2x inhibitor in assay buffer (Assay buffer: 0.5% BSA/50 mM Tris, 100 mM NaCl, 1.0 mM CaCl2, 1.0mM MgCl2, 1.0 mM MnCl2; coat buffer is the same but without BSA) is added. Fifty μl of 4.0 μg/ml vWF (prepared as described by Ledford et al., Thrombosis and Haemostasis, 64(4): 569-575 [1990]) in assay buffer is then added and allowed to incubate for one hour at room temperature on plate-shaker. The plates are washed three times and the antibody mixture is added (1:5000 of mouse anti-vWF and 1:5000 of rabbit-anti-mouse-Fc-HRP, both commercially available) in assay buffer and incubated for 1 hour at room temperature on plate-shaker. Plates are again washed three times and 100 μl of substrate solution (10 mg OPD, 6.5 μl H2 O2, 15 ml phosphate citrate buffer) is added and incubated at room temperature. The color change of OPD/H2 O2 reagent is read at 492 nm with a 405 nm reference wavelength on the filter photometer.

Fibronectin Receptor [6] = target: T3, Fibronectin Receptor (Homo sapiens, UniProt P05556+P08648); assay: Human Fibronectin-Fibronectin Receptor ELISA Assay; assay type: binding; parameters: octylglucoside (OG) extracted human placenta; from tissue; host or cells: human placenta; details: human placenta fibronectin receptor, fibronectin-coated plates; read-out: ELISA IC50 Fibronectin FnR
Protocol: Fibronectin receptor is purified according to the procedures of Pytela et al., (Methods Enzymol. 144:475 […]). Briefly, fibronectin receptor is purified employing an Arg-Gly-Asp affinity chromatography from (100 mM) octylglucoside (OG) extracted human placenta. The OG extract is filtered over Sepharose 6B GRGDSPK column. The column is washed three times with three column volumes of Tris-buffered saline (TBS) TBS, 1 mM CaCl2, and 25 mM OG. The receptor is eluted with TBS, 20 mM EDTA, and 25 mM Octyl thioglucoside, and is stored in 1 mM CaCl2, 1 mM MgCl2, at -80° C.
Microtiter plates are coated with 110 μl human fibronectin (at 2 μg/ml) in TBS. Plates are washed three times with TBS containing 0.05% Tween 20. Test inhibitors are then added after washing in 10 microliter aliquots. The fibronectin receptor is added in 2-fold serial dilutions with TBS containing 20 mM octyl glucoside and 2 mM MnCl2. Plates are incubated three hours at room temperature, and washed with 200 μl TBS-Tween 20 buffer. 100 μl of affinity-purffied rabbit anti-human fibronectin receptor antibody is added to the wells and the plates are incubated two hours, washed twice with TBS-Tween and once with distilled water. Affinity-purified goat anti-rabbit IgG conjugated to horseradish peroxidase (100 μl) is added to each well followed by incubation for 60 minutes at room temperature. Plates are again washed twice with TBS-Tween and distilled water. 100 μl of substrate mixture (10 mg o-phenylenediamine in 25 ml 0.1M citrate-phosphate buffer, pH 5.0 6 μ30% H2 O2) is added to the plates and allowed to develop. The development process is stopped by adding 50 μl of 4N H2 SO4 to each well and read at […].

[7] = system: New Zealand White rabbits; assay: Rabbit peripheral blood flow and CBT, laser Doppler series; assay type: in vivo; details: 1 mg intravenously over 2 minutes at 60 minutes, within 5 minutes, laser doppler probe
Protocol: In an alternative series of experiments, (Table 2 ) PBF was measured quantitatively with a laser Doppler flow probe (Perimed). The probe was positioned securely over the vascular bed of one ear and flow monitored continuously. Each inhibitor was infused and CBT measured in the opposing ear. No arterial catheter was placed for blood sampling, consequently XPA was not measured in these animals.
As a positive control, epinephrine was infused intravenously (1 mg over 2 minutes.) at 60 minutes. The resulting vasoconstriction reduced flow to near 0 flow units within 5 minutes.

Fibronectin Receptor [8] = target: T3, Fibronectin Receptor; details: Pierschbacher et al. 1987; cited from earlier work
vitronectin receptor = vitronectin receptor (Homo sapiens, UniProt P05106+P06756); details: cited from earlier work
GP IIb IIIa [9] = target: T2, GP IIb IIIa; details: Kirchofer et al. 1990; versus αvβ3 and α5β1; cited from earlier work

T3 sequence (P08648 42-894 limits assumed): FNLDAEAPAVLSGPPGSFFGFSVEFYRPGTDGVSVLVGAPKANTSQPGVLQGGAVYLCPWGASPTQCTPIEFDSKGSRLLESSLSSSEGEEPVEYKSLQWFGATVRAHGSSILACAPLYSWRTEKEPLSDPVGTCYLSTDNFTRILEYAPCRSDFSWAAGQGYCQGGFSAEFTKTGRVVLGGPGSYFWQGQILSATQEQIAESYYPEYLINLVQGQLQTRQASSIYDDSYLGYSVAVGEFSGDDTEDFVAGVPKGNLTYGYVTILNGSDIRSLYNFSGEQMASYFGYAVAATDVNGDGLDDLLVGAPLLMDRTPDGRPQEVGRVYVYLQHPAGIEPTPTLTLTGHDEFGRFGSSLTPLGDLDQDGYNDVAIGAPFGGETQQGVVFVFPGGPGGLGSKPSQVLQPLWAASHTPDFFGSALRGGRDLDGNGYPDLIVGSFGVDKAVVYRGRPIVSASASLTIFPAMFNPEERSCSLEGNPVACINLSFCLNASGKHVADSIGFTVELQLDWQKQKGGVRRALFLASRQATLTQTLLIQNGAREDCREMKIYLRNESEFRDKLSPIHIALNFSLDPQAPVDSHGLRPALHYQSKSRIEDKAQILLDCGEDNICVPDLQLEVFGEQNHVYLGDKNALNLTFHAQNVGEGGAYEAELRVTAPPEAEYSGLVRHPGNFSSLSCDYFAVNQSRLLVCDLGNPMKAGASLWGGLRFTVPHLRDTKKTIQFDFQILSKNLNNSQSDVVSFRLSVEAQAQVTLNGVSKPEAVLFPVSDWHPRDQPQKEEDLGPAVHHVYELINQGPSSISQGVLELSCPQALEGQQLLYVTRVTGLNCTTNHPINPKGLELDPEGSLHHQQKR
T3 sequence (P08648 895-1049 partner limits assumed): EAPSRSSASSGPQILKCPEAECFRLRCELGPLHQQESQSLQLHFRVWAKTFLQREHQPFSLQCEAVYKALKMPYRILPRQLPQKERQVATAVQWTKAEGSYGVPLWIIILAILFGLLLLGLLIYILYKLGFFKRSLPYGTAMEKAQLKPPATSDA
T3 sequence (P05556 21-798): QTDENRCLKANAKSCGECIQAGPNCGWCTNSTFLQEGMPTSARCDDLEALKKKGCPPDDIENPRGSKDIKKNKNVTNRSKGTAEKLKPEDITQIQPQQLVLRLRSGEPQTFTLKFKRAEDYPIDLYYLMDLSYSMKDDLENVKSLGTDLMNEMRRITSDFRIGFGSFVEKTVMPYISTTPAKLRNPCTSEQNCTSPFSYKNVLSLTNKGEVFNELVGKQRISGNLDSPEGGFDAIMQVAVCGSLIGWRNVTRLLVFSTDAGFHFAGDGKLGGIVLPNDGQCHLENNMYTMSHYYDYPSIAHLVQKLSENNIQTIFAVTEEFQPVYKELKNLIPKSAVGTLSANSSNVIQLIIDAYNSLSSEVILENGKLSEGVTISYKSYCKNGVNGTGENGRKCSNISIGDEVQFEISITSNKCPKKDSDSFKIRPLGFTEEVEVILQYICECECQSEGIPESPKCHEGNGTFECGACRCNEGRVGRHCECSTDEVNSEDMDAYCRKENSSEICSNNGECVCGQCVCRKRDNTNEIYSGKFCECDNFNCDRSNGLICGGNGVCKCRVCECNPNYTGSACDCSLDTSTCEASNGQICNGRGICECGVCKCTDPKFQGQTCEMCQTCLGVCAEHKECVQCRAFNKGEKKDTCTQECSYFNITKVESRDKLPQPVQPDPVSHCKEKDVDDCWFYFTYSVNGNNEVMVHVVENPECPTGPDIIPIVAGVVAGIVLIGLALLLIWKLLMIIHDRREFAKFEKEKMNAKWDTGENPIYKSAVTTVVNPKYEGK
vitronectin receptor, sequence (P06756 31-889 limits assumed): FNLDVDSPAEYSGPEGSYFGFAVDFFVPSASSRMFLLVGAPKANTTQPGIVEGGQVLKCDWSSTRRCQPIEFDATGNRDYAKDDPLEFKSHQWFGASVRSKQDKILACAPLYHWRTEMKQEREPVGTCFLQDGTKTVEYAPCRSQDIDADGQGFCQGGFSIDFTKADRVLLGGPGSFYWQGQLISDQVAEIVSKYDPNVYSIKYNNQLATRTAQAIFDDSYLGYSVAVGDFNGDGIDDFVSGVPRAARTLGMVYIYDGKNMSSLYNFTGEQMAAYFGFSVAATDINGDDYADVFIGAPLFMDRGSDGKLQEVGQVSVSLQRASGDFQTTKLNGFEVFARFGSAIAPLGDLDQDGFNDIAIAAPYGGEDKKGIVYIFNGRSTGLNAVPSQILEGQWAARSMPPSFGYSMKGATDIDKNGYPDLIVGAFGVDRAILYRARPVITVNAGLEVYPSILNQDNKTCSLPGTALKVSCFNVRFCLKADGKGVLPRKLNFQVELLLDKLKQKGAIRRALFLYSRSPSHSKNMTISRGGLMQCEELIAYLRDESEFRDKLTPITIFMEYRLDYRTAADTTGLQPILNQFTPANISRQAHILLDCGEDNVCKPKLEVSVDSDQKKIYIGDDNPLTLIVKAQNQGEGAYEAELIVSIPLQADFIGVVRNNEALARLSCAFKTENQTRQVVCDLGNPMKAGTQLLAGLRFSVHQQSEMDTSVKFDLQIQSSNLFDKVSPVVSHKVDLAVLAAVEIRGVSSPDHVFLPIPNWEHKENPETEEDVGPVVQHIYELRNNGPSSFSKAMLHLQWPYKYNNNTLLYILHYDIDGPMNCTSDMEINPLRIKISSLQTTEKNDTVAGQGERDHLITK
vitronectin receptor, sequence (P06756 891-1048 partner limits assumed): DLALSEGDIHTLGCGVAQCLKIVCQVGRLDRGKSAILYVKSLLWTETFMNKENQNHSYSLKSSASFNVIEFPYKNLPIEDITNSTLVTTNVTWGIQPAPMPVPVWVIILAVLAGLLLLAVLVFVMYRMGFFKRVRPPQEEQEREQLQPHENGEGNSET
vitronectin receptor, sequence (P05106 27-788): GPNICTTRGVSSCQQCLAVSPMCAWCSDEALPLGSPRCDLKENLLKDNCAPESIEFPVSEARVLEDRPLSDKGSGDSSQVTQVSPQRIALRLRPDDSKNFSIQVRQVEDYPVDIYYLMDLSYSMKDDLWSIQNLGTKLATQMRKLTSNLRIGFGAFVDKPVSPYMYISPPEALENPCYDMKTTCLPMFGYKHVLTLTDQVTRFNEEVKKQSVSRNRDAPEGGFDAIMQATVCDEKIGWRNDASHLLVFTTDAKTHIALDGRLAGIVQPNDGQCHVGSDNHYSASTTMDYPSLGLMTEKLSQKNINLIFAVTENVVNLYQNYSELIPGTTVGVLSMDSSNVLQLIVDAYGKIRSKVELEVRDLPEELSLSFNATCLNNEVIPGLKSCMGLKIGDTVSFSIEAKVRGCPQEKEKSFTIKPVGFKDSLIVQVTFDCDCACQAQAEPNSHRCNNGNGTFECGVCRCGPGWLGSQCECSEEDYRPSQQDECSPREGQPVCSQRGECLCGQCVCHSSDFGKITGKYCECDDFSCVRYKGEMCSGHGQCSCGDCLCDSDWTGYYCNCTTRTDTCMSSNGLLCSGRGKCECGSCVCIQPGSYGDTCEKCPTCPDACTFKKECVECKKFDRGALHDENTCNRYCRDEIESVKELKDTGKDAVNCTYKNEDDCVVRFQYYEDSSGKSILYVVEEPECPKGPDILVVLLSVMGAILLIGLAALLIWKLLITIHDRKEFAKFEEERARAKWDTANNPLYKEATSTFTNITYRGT
T1 sequence (P06756 31-889 limits assumed): as the sequence (P06756 31-889 limits assumed) above
T1 sequence (P06756 891-1048 partner limits assumed): as the sequence (P06756 891-1048 partner limits assumed) above
T1 sequence (P05106 27-788): as the sequence (P05106 27-788) above

For N=C(N)NCCC[C@H](NC(=O)[C@@H]1C[S+]([O-])CC(=O)N[C@H](Cc2ccc(O)cc2)C(=O)N[C@@H](CCCNC(=N)N)C(=O)NCC(=O)N[C@@H](CC(=O)O)C(=O)N1)C(N)=O (single isomer, unassigned) [7/32], the “Rabbit % P.A. Inhibition (ex vivo)” value [1] was 99% and the “Rabbit BT Ratio” value ([2]; rabbit) was 1.17.
In the case of N=C(N)NCCC[C@@H]1NC(=O)[C@@H](Cc2ccc(O)cc2)NC(=O)C[S+]([O-])C[C@@H](C(=O)N[C@H](CCCNC(=N)N)C(N)=O)NC(=O)[C@H](CC(=O)O)NC(=O)CNC1=O (single isomer, unassigned) [7/34], the “Rabbit % P.A. Inhibition (ex vivo)” value [1] is reported as 64% and the “Rabbit BT Ratio” value ([2]; rabbit) is reported as 0.94.
For N=C(N)NCCC[C@@H]1NC(=O)[C@@H](Cc2ccc(O)c(Br)c2)NC(=O)C[S+]([O-])C[C@@H](C(=O)N[C@@H](CCCCN)C(N)=O)NC(=O)[C@H](CC(=O)O)NC(=O)CNC1=O (single isomer, unassigned) [7/36], the “Rabbit % P.A. Inhibition (ex vivo)” value [1] was 91% and the “Rabbit BT Ratio” value ([2]; rabbit) was 0.77.
With NCCCC[C@@H]1NC(=O)[C@@H](Cc2ccc(O)cc2)NC(=O)C(c2ccccc2)SC[C@@H](C(=O)O)NC(=O)[C@H](CC(=O)O)NC(=O)CNC1=O (single isomer, unassigned) [7/45, cyclo-S-phenylacetyl-dTyr--Lys--Gly--Asp--Cys--OH] the IC50 [3] was 220 nM, the IC50 [4] was greater than 20000 nM and the “Rabbit BT Ratio” value ([2]; rabbit) was 4.47. It also gave an IC50 (GP IIb IIIa [5]) of 1 nM and an IC50 (Fibronectin Receptor [6]) greater than 10000 nM.
In the case of CC1(C)SCC(=O)N[C@H](Cc2ccc(O)cc2)C(=O)N[C@@H](CCCCN)C(=O)NCC(=O)N[C@@H](CC(=O)O)C(=O)N[C@@H]1C(=O)O [7/47] ({CH2CO}-[dY]KGD[Pen]-OH; thioether N-5), the “Rabbit % P.A. Inhibition (ex vivo)” value [1] is reported as 96%, the “cutaneous bleeding time, result in words” value [2] is reported as “prolongation of bleeding time in vivo in both the rabbit and dog model” and the “Rabbit BT Ratio” value ([2]; rabbit) is reported as 8.57. The “increase of cutaneous bleeding time compared to the undosed animal” value ([2]; rabbit, dose sufficient to achieve about 97% inhibition of platelet aggregation) was 8.6 times.
With CNC[C@H](O)c1ccc(O)c(O)c1 [epinephrine] the “peripheral blood flow after positive control” value [7] was roughly 0 flow units.
In the case of Gly-Pen-Gly-Arg-Gly-Asp-Ser-Pro-Cys-Ala, the “inhibition of the fibronectin-fibronectin receptor interaction, in words” value (Fibronectin Receptor [8]) is given as “ineffective” and the “effectiveness at inhibiting the vitronectin-vitronectin receptor interaction, cyclized versus uncyclized peptide” value (vitronectin receptor; Pierschbacher et al. 1987) is given as 10 times.
In the case of cyclic-1,7-VRGDSPDG, the “integrin selectivity, in words” value (vitronectin receptor; Kirchofer et al. 1990) is given as “preferentially inhibited αvβ3 (vitronectin receptor) binding to vitronectin”.
In the case of cyclic-2,10-GPenGHRGDLRCA, the “integrin selectivity, in words” value (GP IIb IIIa [9]) is listed as “preferentially inhibits the binding of GP IIb IIIa to fibrinogen”.

From patent publication US5493007A, “Platelet aggregation inhibitors having high specificity for GPIIBIIIA” (Genentech, Inc., priority 1994, dated 1996)
